Laboratory results from ChEMBL document CHEMBL4842358, “Design, synthesis and biological evaluation of sphingosine-1-phosphate receptor 2 antagonists as potent 5-FU-resistance reversal agents for the treatment of colorectal cancer” (Eur J Med Chem, 2021).
pEC50: −log10 of the molar value. Activity calls are given as the source filed them. The calls are words filed in the database; no cut-off is given here.

Tests used:
[1] = Toxicity in athymic nude mouse xenografted with human SW620/5-FU cells assessed as body weight loss at 12.5 mg/kg/day, iv administered for 24 days in presence of 5-FU and measured after 12 days; assay type: organism-based; details: in vivo, 288 h, time 12 day
[2] = Volume of distribution in Sprague-Dawley rat plasma at 1 mg/kg, iv measured for 24 hrs by LC-MS/MS analysis; assay type: ADME, organism-based
[3] = biological target: T1, Sphingosine 1-phosphate receptor 2 (Homo sapiens, UniProt O95136); experiment: Binding affinity to S1PR2 (unknown origin) measured by surface plasmon resonance assay; details: filed as antagonist
[4] = AUC (0 to t) in Sprague-Dawley rat plasma at 1 mg/kg, iv measured for 24 hrs by LC-MS/MS analysis; assay type: ADME, organism-based; design: dose 1 mg/kg, time 24 hrs
[5] = Initial drug concentration in Sprague-Dawley rat blood at 1 mg/kg, iv by LC-MS/MS analysis; assay type: ADME, organism-based
[6] = Mean residence time (0 to infinity) in Sprague-Dawley rat blood at 1 mg/kg, iv by LC-MS/MS analysis; assay type: ADME, organism-based
[7] = Mean residence time (0 to t) in Sprague-Dawley rat plasma at 1 mg/kg, iv measured for 24 hrs by LC-MS/MS analysis; assay type: ADME, organism-based
HCT-116 = experiment: Reversal of 5-FU resistance against human HCT-116 cells overexpressing DPD assessed as inhibition of cell proliferation measured after 72 hrs in presence of 5-FU by MTT assay; assay type: functional, cell-based; details: HCT-116, 72 h
[8] = AUC (0 to infinity) in Sprague-Dawley rat blood at 1 mg/kg, iv by LC-MS/MS analysis; assay type: ADME, organism-based; design: route intravenous, time infinity, dose 1 mg/kg
[9] = Mean residence time (0 to t) in Sprague-Dawley rat blood at 1 mg/kg, iv measured for 24 hrs by LC-MS/MS analysis; assay type: ADME, organism-based
NCM460 = experiment: Cytotoxicity against human NCM460 cells assessed as cell viability measured after 72 hrs in presence of 5-FU by MTT assay; assay type: cell-based; details: NCM460, 72 h
[10] = AUC (0 to t) in Sprague-Dawley rat blood at 1 mg/kg, iv measured for 24 hrs by LC-MS/MS analysis; assay type: ADME, organism-based; design: time 24 hrs, dose 1 mg/kg
[11] = Volume of distribution in Sprague-Dawley rat blood at 1 mg/kg, iv measured for 24 hrs by LC-MS/MS analysis; assay type: ADME, organism-based
[12] = Clearance in Sprague-Dawley rat plasma at 1 mg/kg, iv measured for 24 hrs by LC-MS/MS analysis; assay type: ADME, organism-based
[13] = Toxicity in athymic nude mouse xenografted with human SW620/5-FU cells assessed as histopathological changes in liver at 12.5 mg/kg/day, iv administered for 24 days in presence of 5-FU and measured on day 24 by immunohistochemistry; assay type: organism-based; details: in vivo, 576 h, time 24 day
[14] = biological target: T1, Sphingosine 1-phosphate receptor 2; experiment: Antagonist activity at S1PR2 in human SW620/5-FU cells assessed as reduction of DPD-catalyzed 5-FU degradation by measuring intracellular FBAL level at 2 uM measured after 6 hrs by HPLC-UV analysis; assay type: functional, cell-based; details: filed as antagonist
[15] = Initial plasma concentration in Sprague-Dawley rat at 1 mg/kg, iv by LC-MS/MS analysis; assay type: ADME, organism-based
[16] = biological target: T1, Sphingosine 1-phosphate receptor 2; experiment: Antagonist activity at S1PR2 in human SW620/5-FU cells assessed as reduction of DPD-catalyzed 5-FU degradation by measuring intracellular 5-FU level at 2 uM measured after 6 hrs by HPLC-UV analysis; assay type: functional, cell-based; details: filed as antagonist
[17] = Half life in Sprague-Dawley rat blood at 1 mg/kg, iv measured for 24 hrs by LC-MS/MS analysis; assay type: ADME, organism-based
[18] = biological target: T1, Sphingosine 1-phosphate receptor 2; experiment: Binding affinity to S1PR2 (unknown origin) assessed as association constant measured for 60 secs by surface plasmon resonance assay; details: filed as antagonist, time 60.0 sec
[19] = Reversal of 5-FU resistance against human SW620/5-FU cells assessed as inhibition of cell proliferation measured after 72 hrs in presence of 5-FU by MTT assay; assay type: functional, cell-based
[20] = AUC (0 to infinity) in Sprague-Dawley rat plasma at 1 mg/kg, iv by LC-MS/MS analysis; assay type: ADME, organism-based; design: time infinity, route intravenous, dose 1 mg/kg
[21] = Reversal of 5-FU resistance against human SW620/5-FU cells xenografted in athymic nude mouse assessed as potentiation of 5-FU induced antitumor activity by measuring inhibition of tumor growth at 12.5 mg/kg/day, iv administered for 24 days in presence of 5-FU (reference value: 18.54%); assay type: functional; details: 576 h, time 24 day, read-out: TGI
[22] = Mean residence time (0 to infinity) in Sprague-Dawley rat plasma at 1 mg/kg, iv by LC-MS/MS analysis; assay type: ADME, organism-based
[23] = Plasma concentration in Sprague-Dawley rat at 1 mg/kg, iv measured after 8 hrs by LC-MS/MS analysis; assay type: ADME, organism-based
Mus musculus [24] = experiment: Downregulation of DPD expression in liver of athymic nude mouse xenografted with human SW620/5-FU at 12.5 mg/kg/day, iv administered for 24 days in presence of 5-FU and measured on day 24 by immunohistochemistry; assay type: functional, organism-based; details: time 24.0 day
[25] = biological target: T1, Sphingosine 1-phosphate receptor 2; experiment: Binding affinity to S1PR2 (unknown origin) assessed as dissociation constant measured for 60 secs by surface plasmon resonance assay
[26] = Drug concentration in Sprague-Dawley rat blood at 1 mg/kg, iv measured after 8 hrs by LC-MS/MS analysis; assay type: ADME, organism-based; details: read-out: Ct
[27] = Clearance in Sprague-Dawley rat blood at 1 mg/kg, iv measured for 24 hrs by LC-MS/MS analysis; assay type: ADME, organism-based
Mus musculus [28] = experiment: Downregulation of DPD expression in tumour of athymic nude mouse xenografted with human SW620/5-FU at 12.5 mg/kg/day, iv administered for 24 days in presence of 5-FU and measured on day 24 by immunohistochemistry; assay type: functional, organism-based; details: time 24.0 day
Mus musculus [29] = experiment: Downregulation of DPD expression in colon of athymic nude mouse xenografted with human SW620/5-FU cells at 12.5 mg/kg/day, iv administered for 24 days in presence of 5-FU and measured on day 24 by immunohistochemistry; assay type: functional, organism-based; details: time 24.0 day
[30] = Ratio of drug level in Sprague-Dawley rat blood to plasma at 1 mg/kg, iv measured for 24 hrs by LC-MS/MS analysis; assay type: ADME, organism-based; details: blood and plasma
[31] = Half life in Sprague-Dawley rat plasma at 1 mg/kg, iv measured for 24 hrs by LC-MS/MS analysis; assay type: ADME, organism-based

T1 sequence (O95136 whole entry): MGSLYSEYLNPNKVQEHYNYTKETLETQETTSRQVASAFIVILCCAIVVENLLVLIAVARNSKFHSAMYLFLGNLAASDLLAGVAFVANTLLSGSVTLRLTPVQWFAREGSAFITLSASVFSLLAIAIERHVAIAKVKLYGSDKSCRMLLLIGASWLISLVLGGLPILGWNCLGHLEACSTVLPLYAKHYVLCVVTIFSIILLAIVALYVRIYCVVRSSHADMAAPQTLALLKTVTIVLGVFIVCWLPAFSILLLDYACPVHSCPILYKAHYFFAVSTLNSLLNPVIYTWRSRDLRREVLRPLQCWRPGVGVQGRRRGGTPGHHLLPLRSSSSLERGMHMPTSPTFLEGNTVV

Which Activity [1] does the source give for Cc1nn(C)c2nc(NNC(=O)Nc3cc(Cl)nc(Cl)c3)cc(C(C)C)c12 here?
Its Activity is “Toxic”.

What about the Vd [2] of the same compound?
The Vd was 3.1 L/kg.

What about the K [3] of the same compound?
The K was 1.96 10^-6M.

What about the AUC(0-t) at 24 h [4] of the same compound?
Its AUC(0-t) at 24 h is 482 ng·h/mL.

And the C0 [5]?
The C0 was 1840 ng/mL.

What about the MRT inf [6] of the same compound?
The MRT inf was 60 min.

And the MRT last at 24 h [7]?
Its MRT last at 24 h is 54 min.

And the pEC50 (HCT-116)?
The pEC50 was 4.77.

What about the AUC(0-inf) [8] of the same compound?
The AUC(0-inf) was 738 ng·h/mL.

And the MRT last at 24 h [9]?
The MRT last at 24 h was 54 min.

And the pEC50 (NCM460)?
Its pEC50 is 4.21.

What about the AUC(0-t) at 24 h [10] of the same compound?
Its AUC(0-t) at 24 h is 726 ng·h/mL.

What about the Vd [11] of the same compound?
Its Vd is 2.1 L/kg.

And the clearance [12]?
The clearance was 35 mL/min/kg.

What about the Activity [13] of the same compound?
Its Activity is “Non-Toxic”.

What about the Activity [14] of the same compound?
The Activity was 1.37 mg/L.

And the C0 [15]?
Its C0 is 2020 ng/mL.

And the Activity [16]?
The Activity was 4.87 mg/L.

What about the half-life [17] of the same compound?
The half-life was 60 min.

And the Ka [18]?
The Ka was 8.21 10^4/M/s.

What about the pEC50 [19] of the same compound?
The pEC50 was 4.23.

And the AUC(0-inf) [20]?
The AUC(0-inf) was 484 ng·h/mL.

And the inhibition in vivo at 12.5 mg/kg/day [21]?
Its inhibition in vivo at 12.5 mg/kg/day is 29.9%.

And the MRT inf [22]?
Its MRT inf is 54 min.

And the concentration at 8 h [23]?
Its concentration at 8 h is less than 1 ng/mL.

And the inhibition (Mus musculus [24])?
The inhibition was “Active”.

And the “Dissociation rate constant (koff)” value [25]?
Its value is 1.61 10^-1/s.

And the concentration at 8 h [26]?
The concentration at 8 h was less than 1 ng/mL.

What about the clearance [27] of the same compound?
The clearance was 23.3 mL/min/kg.

And the inhibition (Mus musculus [28])?
Its inhibition is “Active”.

And the inhibition (Mus musculus [29])?
The inhibition was “inactive”.

What about the blood plasma ratio at 24 h [30] of the same compound?
Its blood plasma ratio at 24 h is 1.62.

What about the half-life [31] of the same compound?
The half-life was 66 min.
